Here are results for 29 compounds from patent US9650380B2, “Difluoromethylene compound” (SATO PHARMACEUTICAL CO., LTD., priority 2012, dated 2017).

Usually IC50 stands for the concentration that inhibits the measured activity by half.

This experiment concerns the target T1, human URAT1 (Homo sapiens, UniProt Q96S37).
T1 construct: Human URAT1 full-length cDNA was introduced to an expression vector pcDNA5/FRT/V5-His TOPO; expressed in transfected cells
T1 sequence (Q96S37 1-553): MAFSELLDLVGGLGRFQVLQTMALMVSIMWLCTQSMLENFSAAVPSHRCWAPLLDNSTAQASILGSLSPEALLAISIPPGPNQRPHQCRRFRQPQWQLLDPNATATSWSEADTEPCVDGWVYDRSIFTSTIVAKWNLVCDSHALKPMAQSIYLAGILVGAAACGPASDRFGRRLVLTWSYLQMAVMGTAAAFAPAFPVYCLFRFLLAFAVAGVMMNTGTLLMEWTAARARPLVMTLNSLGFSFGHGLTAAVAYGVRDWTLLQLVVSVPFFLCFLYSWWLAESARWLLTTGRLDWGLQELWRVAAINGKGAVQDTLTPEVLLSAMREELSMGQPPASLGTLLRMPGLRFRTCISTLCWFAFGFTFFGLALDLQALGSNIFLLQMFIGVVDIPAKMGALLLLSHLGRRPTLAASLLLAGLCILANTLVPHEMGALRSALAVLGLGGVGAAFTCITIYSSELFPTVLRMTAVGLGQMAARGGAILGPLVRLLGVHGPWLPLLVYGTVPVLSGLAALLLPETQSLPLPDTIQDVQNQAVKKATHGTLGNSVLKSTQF
Briefly: Test for uric acid transport inhibition using human URAT1 expression cells. It is filed as cell-based. The note with it: human URAT1 stable expression CHO cells; 14C-labeled uric acid 38 μM final; incorporation 5 minutes at room temperature; 100% window defined with benzbromarone 100 μM; read-out: URAT1 inhibitory activity (IC50). As to the method:
In this Example, it was evaluated whether the Example compound and the Reference example compound mentioned below has the URAT1 inhibitory activity.
Human URAT1 full-length cDNA was introduced to an expression vector pcDNA5/FRT/V5-His TOPO (registered trademark) (Invitrogen Corporation). The obtained expression plasmid was introduced to Chinese hamster ovary cell (hereinafter referred to as the CHO cell) by the liposome method using Lipofectamine LTX (Invitrogen) and cultured in a selection medium including hygromycin, whereby to prepare human URAT1 stable expression cell.
The human URAT1 expression CHO cell were cultured using D-MEM/F-12 (1:1) mixed medium including 10% bovine fatal serum and hygromycin at 37° C. in the presence of 5% CO2. The cells were seeded onto a 96-well plate (Corning Incorporated) at 0.8×10^5 cells/well, and after 24 hours, the test for uric acid transport inhibition below was performed.
The medium was removed by aspiration, and then the cells were washed once with an assay buffer including 125 mM of sodium gluconate, 4.8 mM of potassium gluconate, 1.2 mM of potassium dihydrogen phosphate, 1.2 mM of magnesium sulfate, 1.3 mM of calcium gluconate and 5.6 mM of glucose, 50 μL assay buffer including the test compound in various concentrations was added, and further 50 μL assay buffer including a radioactive ligand (uric acid labeled with ^14C; 38 μM final concentration) was added, and incorporation reaction was performed at room temperature for 5 minutes. Immediately after the completion of the reaction, the reaction mixture was washed twice with 100 μL ice-cold assay buffer, and 100 μL of 0.1N sodium hydroxide was added. The reaction mixture was stirred to lyse the cells, and 4 mL of Hionic-Fluor (Packard BioScience CO.) was added, and then the radioactivity was measured with a liquid scintillation counter (Beckman Coulter, Inc. and Packard BioScience CO).
The radioactivitiy when each concentration of the test compound was added (uric acid incorporation activity, %) was calculated in which the difference of the radioactivity when the test compound was not added (DMSO added) and the radioactivity when a positive control compound, benzbromarone (a known URAT1 inhibitor) was added in 100 μM, was taken as 100%, and the concentration of the test compound when the uric acid incorporation activity was inhibited to 50% (IC50) was obtained.
With `Cc1cccc(Cl)c1Cn1nc(C)c2ccc(C(F)(F)C(=O)O)cc21` [Example 3, [1-(2-chloro-6-methylbenzyl)-3-methyl-1H-indazol-6-yl]difluoroacetic acid], the half-maximal inhibitory concentration (IC50) came out at 26 nM.

Regarding `Cc1nn(Cc2c(Cl)cccc2C2CC2)c2cc(C(F)(F)C(=O)O)ccc12` [Example 12, [1-(2-chloro-6-cyclopropylbenzyl)-3-methyl-1H-indazol-6-yl]difluoroacetic acid], the IC50 was found to be 17 nM.

On to `O=C(O)C(F)(F)c1ccc2c(Cl)nn(Cc3c(Cl)cccc3Cl)c2c1` [Example 34, [3-chloro-1-(2,6-dichlorobenzyl)-1H-indazol-6-yl]difluoroacetic acid], for which the 50% inhibitory concentration (IC50) amounted to 15 nM. The result for `O=C(O)C(F)(F)c1ccc2c(C(F)(F)F)nn(Cc3c(Cl)cccc3Cl)c2c1` [Example 36, [1-(2,6-dichlorobenzyl)-3-trifluoromethyl-1H-indazol-6-yl]difluoroacetic acid] reads 107 nM; that for `Cc1nn(Cc2c(Cl)cccc2C2CC2)c2cc(C(F)(F)C(=O)O)cnc12` [Example 38, [1-(2-chloro-6-cyclopropylbenzyl)-3-methyl-1H-pyrazolo[4,3-b]pyridin-6-yl]difluoroacetic acid], 34 nM; that for `CCc1nn(Cc2c(F)cccc2C2CC2)c2cc(C(F)(F)C(=O)O)cnc12` [Example 46, [1-(2-cyclopropyl-6-fluorobenzyl)-3-ethyl-1H-pyrazolo[4,3-b]pyridin-6-yl]difluoroacetic acid], 243 nM. To `Cc1cn(Cc2c(Cl)cccc2Cl)c2cc(C(F)(F)C(=O)O)ccc12` [Example 49, [1-(2,6-dichlorobenzyl)-3-methyl-1H-indol-6-yl]difluoroacetic acid] belongs 38 nM.

`Cc1nn(Cc2c(Cl)cccc2Cl)c2cc(C(F)(F)c3nnn[nH]3)ccc12` [Example 50, 1-(2,6-dichlorobenzyl)-6-[difluoro(1H-tetrazol-5-yl)methyl]-3-methyl-1H-indazole]: the IC50 is 7 nM. The result for `Cc1cccc(C#N)c1Cn1nc(C)c2ccc(C(F)(F)c3nnn[nH]3)cc21` [Example 71, 2-{6-[difluoro(1H-tetrazol-5-yl)methyl]-3-methyl-1H-indazol-1-ylmethyl}-3-methylbenzonitrile] reads 6 nM; that for `Cc1nn(Cc2ccc(C#N)cc2)c2cc(C(F)(F)c3nnn[nH]3)ccc12` [Example 88, 4-{6-[difluoro(1H-tetrazol-5-yl)methyl]-3-methyl-1H-indazol-1-ylmethyl}benzonitrile], 34 nM. Consider `Cc1nn(Cc2c(C#N)ccnc2Cl)c2cc(C(F)(F)c3nnn[nH]3)ccc12` [Example 92, 2-chloro-3-{6-[difluoro(1H-tetrazol-5-yl)methyl]-3-methyl-1H-indazol-1-ylmethyl}isonicotinonitrile], for which the IC50 was 21 nM. The result for `Cc1nn(Cc2cccc3ccncc23)c2cc(C(F)(F)c3nnn[nH]3)ccc12` [Example 94, 8-{6-[difluoro(1H-tetrazol-5-yl)methyl]-3-methyl-1H-indazol-1-ylmethyl}isoquinoline] reads 125 nM; that for `Cc1nn(Cc2c(F)cccc2Cl)c2cc(C(F)(F)c3n[nH]c(=O)o3)ccc12` [Example 101, 5-{[1-(2-chloro-6-fluorobenzyl)-3-methyl-1H-indazol-6-yl]difluoromethyl}-1,3,4-oxadiazol-2(3H)-one], 9 nM; that for `Cc1nn(S(=O)(=O)c2c(Cl)cccc2Cl)c2cc(C(F)(F)c3nnn[nH]3)ccc12` [Example 102, 1-(2,6-dichlorobenzenesulfonyl)-6-[difluoro(1H-tetrazol-5-yl)methyl]-3-methyl-1H-indazole], 142 nM. To `Cc1cccc(CC#N)c1Cn1nc(C)c2ccc(C(F)(F)c3nnn[nH]3)cc21` [Example 107, (2-{6-[difluoro(1H-tetrazol-5-yl)methyl]-3-methyl-1H-indazol-1-ylmethyl}-3-methylphenyl)acetonitrile] belongs 12 nM; to `Cc1cccc(C#N)c1Cn1nc(C)c2ccc(C(F)(F)c3nnn[nH]3)nc21` [Example 109, 2-{6-[difluoro(1H-tetrazol-5-yl)methyl]-3-methyl-1H-pyrazolo[3,4-b]pyridin-1-ylmethyl}-3-methylbenzonitrile], 13 nM. The result for `Cc1nn(Cc2c(Cl)cccc2C2CC2)c2cc(C(=O)O)cnc12` [Reference Example 2, 1-(2-chloro-6-cyclopropylbenzyl)-3-methyl-1H-pyrazolo[4,3-b]pyridine-6-carboxylic acid, reference compound] reads 53 nM; that for `O=C(O)c1cnc2c(Cl)nn(Cc3c(Cl)cccc3C3CC3)c2c1` [Reference Example 3, 3-chloro-1-(2-chloro-6-cyclopropylbenzyl)-1H-pyrazolo[4,3-b]pyridine-6-carboxylic acid, reference compound], 32 nM; that for `O=C(O)c1cnc2c(C(F)(F)F)nn(Cc3c(Cl)cccc3C3CC3)c2c1` [Reference Example 5, 1-(2-chloro-6-cyclopropylbenzyl)-3-trifluoromethyl-1H-pyrazolo[4,3-b]pyridine-6-carboxylic acid, reference compound], 13 nM. For `Cc1nn(Cc2c(Cl)cccc2C2CC2)c2cc(CCC(=O)O)ccc12` [Reference Example 8, 3-[1-(2-chloro-6-cyclopropylbenzyl)-3-methyl-1H-indazol-6-yl]propionic acid, reference compound], the IC50 amounted to 24 nM. In the case of `Cc1nn(Cc2c(Cl)cccc2Cl)c2cc(C(O)c3nnn[nH]3)ccc12` (centres unmarked) [Reference Example 9, [1-(2,6-dichlorobenzyl)-3-methyl-1H-indazol-6-yl](1H-tetrazol-5-yl)methanol, reference compound], the 50% inhibitory concentration (IC50) was 78 nM. To `O=C(O)Cc1ccc2c(C(F)(F)F)nn(Cc3c(Cl)cccc3Cl)c2c1` [Reference Example 11, [1-(2,6-dichlorobenzyl)-3-trifluoromethyl-1H-indazol-6-yl]acetic acid, reference compound] belongs 15 nM. With `O=C(O)Cc1ccc2c(Cl)nn(Cc3c(Cl)cccc3Cl)c2c1` [Reference Example 12, [3-chloro-1-(2,6-dichlorobenzyl)-1H-indazol-6-yl]acetic acid, reference compound], the IC50 came to 16 nM. For `Cc1nn(Cc2c(F)cccc2Cl)c2cc(C(F)(F)C(=O)O)ccc12` [example 9, [1-(2-chloro-6-fluorobenzyl)-3-methyl-1H-indazol-6-yl]difluoroacetic acid], the half-maximal inhibitory concentration (IC50) worked out at 40 nM. With `Cc1nn(Cc2cccc(Cl)c2Cl)c2cc(C(F)(F)C(=O)O)ccc12` [example 14, [1-(2,3-dichlorobenzyl)-3-methyl-1H-indazol-6-yl]difluoroacetic acid], the IC50 amounted to 48 nM. The result for `Cc1nn(Cc2c(F)cccc2C(F)(F)F)c2cc(C(F)(F)C(=O)O)ccc12` [example 22, difluoro[1-(2-fluoro-6-trifluoromethylbenzyl)-3-methyl-1H-indazol-6-yl]acetic acid] reads 52 nM.

Take `Cc1cccc(C#N)c1Cn1nc(C)c2ccc(C(F)(F)C(=O)O)cc21` [example 24, [1-(2-cyano-6-methylbenzyl)-3-methyl-1H-indazol-6-yl]difluoroacetic acid]: the IC50 was determined as 26 nM. For `Cc1nn(Cc2c(C#N)cccc2C2CC2)c2cc(C(F)(F)C(=O)O)ccc12` [example 32, [1-(2-cyano-6-cyclopropylbenzyl)-3-methyl-1H-indazol-6-yl]difluoroacetic acid], the IC50 turned out to be 23 nM. To `Cc1nn(Cc2c(C#N)cccc2CO)c2cc(C(F)(F)C(=O)O)ccc12` [example 53, [1-(2-cyano-6-hydroxymethylbenzyl)-3-methyl-1H-indazol-6-yl]difluoroacetic acid] belongs 390 nM.
